From patent US20160113911A1, “METHODS AND COMPOSITIONS FOR THE TREATMENT OF CANCER” (THE GENERAL HOSPITAL CORPORATION, priority 2013, published 2016)

Columns and labels:
HEK 293T cells = assay: Monitored cell proliferation assay (xCELLigence growth curves, doubling time); assay type: cell-based, human
Procedure: Seventy two hours post transfection 1×10^4 HEK 293T cells were seeded per well of a 96 well plate, and then treated after 24h. Cell proliferation was monitored with an xCELLigence system (Roche) (Vistejnova et al., 2009).

[1] = tested on: 1q12h copy gain in RPE cells; assay: FISH for site-specific copy gain; assay type: cell-based, human; conditions: for hypoxia-dependent copy gain of 1q12h / hypoxia-induced 1q12h copy number gains / KDM4A-dependent 1q12h copy gain upon co-expression: RPE cells; for hypoxia-dependent copy gain of 1q12h: 1% O2 24 hours, JIB-04 62.5 nM or 2 mM succinate pre-treatment, or overexpression; for hypoxia-induced 1q12h copy number gains: 4% oxygen, transfection or 2 mM succinate for 24 hours; for KDM4A-dependent 1q12h copy gain upon co-expression: transient transfection 24 hours
Procedure: FISH was performed as described in (Manning et al., 2010). Probes for 1q12h, 1q telomere, and chromosome 2, 6, 8, and X alpha satellite were purchased from Rainbow Scientific. Probes for 1q12 (RP11-80L2), Xq13.2 (RP11-451A22), Xq13.1 (RP11-177A4) were purchased as BAC clones from Children's Hospital Oakland Research Institute (CHORI BacPac) FISH verified clone repository. Oligonucleotide probes for 1q21.2 (BCL9) and 1q23.3 were purchased from Agilent (SureFISH). BACS were prepared utilizing PureLink HiPure Plasmid Filter Maxiprep kit (Life Technologies) using the recommended modified wash buffer. Probes were nick translated (Abbot Molecular Kit) in the presence of fluorescently labeled dTTP (Enzo Life Science). Images of multiple planes of fields of nuclei were acquired on an Olympus IX81 Spinning Disk Microscope and analyzed using Slidebook 5.0 software. We used a conservative scoring metric for copy gain. Any foci that were touching were scored as a single foci to prevent increased numbers due to normally replicated foci. For RPE cells, copy gain was scored as any cell with 3 or more distinct foci. For 293T cells, copy gain was scored for any cell with 5 or more distinct foci. For RPE cells each experiment includes at least one replicate from the two different polyclonal stable cell preparations. At least 100 cells for each replicate were scored for all experiments except analysis of single cell clones.
Cells were plated onto culture dishes and allowed to adhere for 20-24 hrs in normoxia (5% CO2, 21% O2, and 74% N2). For hypoxic treatment, cells were maintained in a HERA Cell 150™ incubator (Thermo Scientific) flushed with 5% CO2, 1% O2 or 4% O2, and balanced with N2 for the duration of the experiment. Incubator calibrations were carried out by Bianchi Associates Calibrations/Verifications.
To release, cells were washed twice with culture medium pre-conditioned in normoxia or hypoxia, and supplied with fresh pre-conditioned media. For JIB-04 treatment, normoxic cells were pre-treated with 62.5 nM JIB-04 (Xcessbio) for 24 hrs, then treated again with JIB-04 and either transferred to 1% O2 or maintained in normoxia for an additional 24 hrs. Succinate was administered at a final concentration of 2 mM and cells were either maintained in normoxia for 72 hrs or maintained in normoxia for 48 hrs prior to being transferred to 1% O2 for 24 hrs.
FISH was performed as described in (Black et al., 2013; Manning et al., 2010). Probes for 1q12h, 1q telomere, chromosome 8 centromere (alpha satellite), and X centromere (alpha satellite) were purchased from Rainbow Scientific. Probes for Xq13.1 (RP11-177A4), Zebrafish BCL9 (CH73-15J19) and Zebrafish IGBP1 (CH73-223D24) were purchased as BAC clones from Children's Hospital Oakland Research Institute (CHORI BacPac) clone repository. Probes for 1q21.2 (BCL9) and 1q23.3 were purchased from Agilent (SureFISH).
FISH was performed as described in (Black et al., 2013; Manning et al., 2010). Probes for 1q12h, 1q telomere, chromosome 8 centromere (alpha satellite), and X centromere (alpha satellite) were purchased from Rainbow Scientific. Probes for Xq13.1 (RP11-177A4), Zebrafish BCL9 (CH73-15J19) and Zebrafish IGBP1 (CH73-223D24) were purchased as BAC clones from Children's Hospital Oakland Research Institute (CHORI BacPac) clone repository. Probes for 1q21.2 (BCL9) and 1q23.3 were purchased from Agilent (SureFISH). BACS were prepared utilizing PureLink HiPure™ Plasmid Filter Maxiprep kit (Life Technologies) using the recommended modified wash buffer. Probes were nick translated (Abbot Molecular Kit) in the presence of fluorescently labeled dTTP (Enzo Life Science). Images of multiple planes of fields of nuclei were acquired on an Olympus IX81 T Spinning Disk Microscope and analyzed using Slidebook™ 5.0 software. A conservative scoring metric was used for copy gain. Any foci that were touching were scored as a single copy to prevent increased numbers due to normally replicated foci.

KDM4A = KDM4A protein levels by western blot; assay type: cell-based, human; conditions: 293T cells, fractionated in presence of NEM
Procedure: Western blot analyses were performed according to (Black et al., 2010).
Western blots were performed as in (Black et al., 2010). Briefly, adherent cells were either scraped directly into PBS, or washed with PBS, trypsinized and collected by centrifuging at 2,000 RPM for 5 minutes. For preparation of whole-cell lysates, cell pellets were washed once in ice-cold PBS and resuspended in RIPA lysis buffer [50 mM Tris pH 7.4, 150 mM NaCl, 0.25% Sodium Deoxycholate, 1% NP40, 1 mM EDTA, 10% Glycerol] supplemented with complete protease inhibitor and PhosSTOP™ phosphatase inhibitor cocktails (Roche). Cells were lysed on ice for 15 minutes and immediately frozen at −80° C. for 10 min. Lysates were subsequently sonicated at 70% amplitude for 15 minutes in a QSonica Q800R™ and cleared of cell debris by centrifuging at 12,000 RPM for 15 minutes, before being analyzed by western blotting. For HIF1α expression, adherent cells were washed twice with ice-cold PBS and scraped directly in warmed 1× Laemmli buffer. Samples were sonicated at 70% amplitude for 15 minutes and boiled immediately prior to western blotting.

H3K36me3 = assay: H3K36 demethylase activity of KDM4A variants in transfected cells (immunofluorescence); assay type: cell-based; design: key: + indicates active; − indicates inactive; +/− indicates partial acitivty; conditions: KDM4A mutations
H3K9me3 = assay: H3K9 demethylase activity of KDM4 variants in transfected cells; assay type: cell-based; design: key: + indicates active; − indicates inactive; +/− indicates partial acitivty; conditions: KDM4A mutations

C[C@@H]1C[C@@H]([C@H](O)CC2CC(=O)NC(=O)C2)C(=O)[C@@H](C)C1 [Cycloheximide]
cell growth vs DMSO, KDM4A shRNA cells (HEK 293T cells; HEK293T KDM4A shRNA, 30 nM): slow growth
cell growth vs DMSO, control vector cells (HEK 293T cells; HEK293T control vector, 30 nM): do not slow growth

CCCS(=O)(=O)Nc1ccc(F)c(C(=O)c2c[nH]c3ncc(Cl)cc23)c1F [PLX-4720]
drug sensitivity of KDM4A shRNA cells vs control vector (growth curves, doubling time) (HEK 293T cells; HEK293T, PLX-4720): more sensitive

O=C1NC(=NCc2cccs2)S/C1=C\c1ccc2ncccc2c1 [R03306, reference compound]
1q12h copy number in KDM4A overexpressing cells upon arrest ([1]; stable GFP-KDM4A RPE cells, arrested 20 hours): failed to display increased copy number of 1q12h

CCN1C(=O)C=CC1=O [NEM]
hypoxia-induced changes in KDM4A levels and/or localization (KDM4A; 1% O2 6h): reduced
KDM4A chromatin association (KDM4A): alters the chromatin association

HP1γ: H3K9me3 binding protein, overexpressed by transfection
hypoxia-dependent copy gain of 1q12h [1]: able to abrogate hypoxic induction of site-specific copy gain
hypoxia-induced 1q12h copy number gains [1]: antagonized
KDM4A-dependent 1q12h copy gain upon co-expression [1]: significantly reduced the number of KDM4A overexpressing cells with altered copy number of 1q12h

B1: 2A-E23K: KDM4A mutation (protein)
chain: MASESETLNPSARIMTFYPTMEKFRNFSRYIAYIESQGAHRAGLAKVVPPKEWKPRASYDDIDDLVIPAPIQQLVTGQSGLFTQYNIQKKAMTVREFRKIANSDKYCTPRYSEFEELERKYWKNLTFNPPIYGADVNGTLYEKHVDEWNIGRLRTILDLVEKESGITIEGVNTPYLYFGMWKTSFAWHTEDMDLYSINYLHFGEPKSWYSVPPEHGKRLERLAKGFFPGSAQSCEAFLRHKMTLISPLMLKKYGIPFDKVTQEAGEFMITFPYGYHAGFNHGFNCAESTNFATRRWIEYGKQAVLCSCRKDMVKISMDVFVRKFQPERYKLWKAGKDNTVIDHTLPTPEAAEFLKESELPPRAGNEEECPEEDMEGVEDGEEGDLKTSLAKHRIGTKRHRVCLEIPQEVSQSELFPKEDLSSEQYEMTECPAALAPVRPTHSSVRQVEDGLTFPDYSDSTEVKFEELKNVKLEEEDEEEEQAAAALDLSVNPASVGGRLVFSGSKKKSSSSLGSGSSRDSISSDSETSEPLSCRAQGQTGVLTVHSYAKGDGRVTVGEPCTRKKGSAARSFSERELAEVADEYMFSLEENKKSKGRRQPLSKLPRHHPLVLQECVSDDETSEQLTPEEEAEETEAWAKPLSQLWQNRPPNFEAEKEFNETMAQQAPHCAVCMIFQTYHQVEFGGFNQNCGNASDLAPQKQRTKPLIPEMCFTSTGCSTDINLSTPYLEEDGTSILVSCKKCSVRVHASCYGVPPAKASEDWMCSRCSANALEEDCCLCSLRGGALQRANDDRWVHVSCAVAILEARFVNIAERSPVDVSKIPLPRFKLKCIFCKKRRKRTAGCCVQCSHGRCPTAFHVSCAQAAGVMMQPDDWPFVVFITCFRHKIPNLERAKGALQSITAGQKVISKHKNGRFYQCEVVRLTTETFYEVNFDDGSFSDNLYPEDIVSQDCLQFGPPAEGEVVQVRWTDGQVYGAKFVASHPIQMYQVEFEDGSQLVVKRDDVYTLDEELPKRVKSRLSVASDMRFNEIFTEKEVKQEKKRQRVINSRYREDYIEPALYRAIME
H3k36 Demethylase Activity (H3K36me3): +
H3k9 Demethylase Activity (H3K9me3): +

B2: 2A-S28N: KDM4A mutation (protein)
chain: MASESETLNPSARIMTFYPTMEEFRNFNRYIAYIESQGAHRAGLAKVVPPKEWKPRASYDDIDDLVIPAPIQQLVTGQSGLFTQYNIQKKAMTVREFRKIANSDKYCTPRYSEFEELERKYWKNLTFNPPIYGADVNGTLYEKHVDEWNIGRLRTILDLVEKESGITIEGVNTPYLYFGMWKTSFAWHTEDMDLYSINYLHFGEPKSWYSVPPEHGKRLERLAKGFFPGSAQSCEAFLRHKMTLISPLMLKKYGIPFDKVTQEAGEFMITFPYGYHAGFNHGFNCAESTNFATRRWIEYGKQAVLCSCRKDMVKISMDVFVRKFQPERYKLWKAGKDNTVIDHTLPTPEAAEFLKESELPPRAGNEEECPEEDMEGVEDGEEGDLKTSLAKHRIGTKRHRVCLEIPQEVSQSELFPKEDLSSEQYEMTECPAALAPVRPTHSSVRQVEDGLTFPDYSDSTEVKFEELKNVKLEEEDEEEEQAAAALDLSVNPASVGGRLVFSGSKKKSSSSLGSGSSRDSISSDSETSEPLSCRAQGQTGVLTVHSYAKGDGRVTVGEPCTRKKGSAARSFSERELAEVADEYMFSLEENKKSKGRRQPLSKLPRHHPLVLQECVSDDETSEQLTPEEEAEETEAWAKPLSQLWQNRPPNFEAEKEFNETMAQQAPHCAVCMIFQTYHQVEFGGFNQNCGNASDLAPQKQRTKPLIPEMCFTSTGCSTDINLSTPYLEEDGTSILVSCKKCSVRVHASCYGVPPAKASEDWMCSRCSANALEEDCCLCSLRGGALQRANDDRWVHVSCAVAILEARFVNIAERSPVDVSKIPLPRFKLKCIFCKKRRKRTAGCCVQCSHGRCPTAFHVSCAQAAGVMMQPDDWPFVVFITCFRHKIPNLERAKGALQSITAGQKVISKHKNGRFYQCEVVRLTTETFYEVNFDDGSFSDNLYPEDIVSQDCLQFGPPAEGEVVQVRWTDGQVYGAKFVASHPIQMYQVEFEDGSQLVVKRDDVYTLDEELPKRVKSRLSVASDMRFNEIFTEKEVKQEKKRQRVINSRYREDYIEPALYRAIME
H3k36 Demethylase Activity (H3K36me3): +
H3k9 Demethylase Activity (H3K9me3): +

B3: Suv39H1: H3K9me3 methyltransferase, overexpressed by transfection (protein, UniProt O43463 1-412, looked up)
Histone-lysine …: MAENLKGCSVCCKSSWNQLQDLCRLAKLSCPALGISKRNLYDFEVEYLCDYKKIREQEYYLVKWRGYPDSESTWEPRQNLKCVRILKQFHKDLERELLRRHHRSKTPRHLDPSLANYLVQKAKQRRALRRWEQELNAKRSHLGRITVENEVDLDGPPRAFVYINEYRVGEGITLNQVAVGCECQDCLWAPTGGCCPGASLHKFAYNDQGQVRLRAGLPIYECNSRCRCGYDCPNRVVQKGIRYDLCIFRTDDGRGWGVRTLEKIRKNSFVMEYVGEIITSEEAERRGQIYDRQGATYLFDLDYVEDVYTVDAAYYGNISHFVNHSCDPNLQVYNVFIDNLDERLPRIAFFATRTIRAGEELTFDYNMQVDPVDMESTRMDSNFGLAGLPGSPKKRVRIECKCGTESCRKYLF
modifications: Halo tag
notes: H3K9me3 methyltransferase, overexpressed by transfection
hypoxia-dependent copy gain of 1q12h [1]: able to abrogate hypoxic induction of site-specific copy gain
hypoxia-induced 1q12h copy number gains [1]: antagonized
KDM4A-dependent 1q12h copy gain upon co-expression [1]: sufficient to abrogate KDM4A-dependent 1q12h copy gain
